Drawing on BindingDB's records for doi:10.1021/jm0301078 (Merck Frosst Centre For Therapeutic Research, 2003), this text covers IC50 for 8 compounds.

Holding throughout (assay): Enzyme Inhibition Assay
In experiment [1] the target is T1, Cathepsin K (Homo sapiens, UniProt P43235).
T1 sequence (P43235 whole entry): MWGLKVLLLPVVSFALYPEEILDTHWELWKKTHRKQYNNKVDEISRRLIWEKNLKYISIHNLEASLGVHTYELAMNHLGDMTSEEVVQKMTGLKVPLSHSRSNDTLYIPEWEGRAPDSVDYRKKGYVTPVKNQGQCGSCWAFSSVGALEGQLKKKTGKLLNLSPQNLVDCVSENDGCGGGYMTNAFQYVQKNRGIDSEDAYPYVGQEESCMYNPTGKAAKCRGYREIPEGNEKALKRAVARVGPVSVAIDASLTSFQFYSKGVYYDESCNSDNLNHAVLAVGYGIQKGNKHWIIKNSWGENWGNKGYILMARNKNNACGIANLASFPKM
Particulars: pH 5.5; 22 °C. The method, then: (§1) Prior to the addition of substrate, different concentrations of the inhibitor ranging from 100 uM to 0.2 nM were preincubated for 15 min with enzyme to allow the establishment of the enzyme-inhibitor complex. The proteolytic cleavage of N-acyl aminocoumarins by cathepsins was conducted in 96-well plate format and the plate read using a Spectramax (Molecular Devices) plate reader. […] The percent inhibition of the reaction was calculated from a control reaction containing only vehicle. IC50 curves were generated by fitting percent inhibition values to a four parameter logistic model (SOFTMAX PRO, Molecular Devices).

The target in experiment [2] is Cathepsin S (Homo sapiens, UniProt P25774). As to the method:
as §1

Experiment [3] has as its target Procathepsin L (Homo sapiens, UniProt P07711). As to the method: as §1

Cathepsin S, sequence (P25774 whole entry): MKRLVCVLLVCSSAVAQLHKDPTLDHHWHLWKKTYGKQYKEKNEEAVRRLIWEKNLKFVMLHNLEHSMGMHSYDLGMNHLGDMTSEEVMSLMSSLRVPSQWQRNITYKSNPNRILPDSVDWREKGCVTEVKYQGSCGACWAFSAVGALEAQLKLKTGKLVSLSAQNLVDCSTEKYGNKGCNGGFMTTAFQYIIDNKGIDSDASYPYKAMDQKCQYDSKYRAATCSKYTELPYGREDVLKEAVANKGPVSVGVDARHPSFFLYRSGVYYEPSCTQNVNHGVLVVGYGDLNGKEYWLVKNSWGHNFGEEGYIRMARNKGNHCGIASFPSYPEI
Procathepsin L, sequence (P07711 whole entry): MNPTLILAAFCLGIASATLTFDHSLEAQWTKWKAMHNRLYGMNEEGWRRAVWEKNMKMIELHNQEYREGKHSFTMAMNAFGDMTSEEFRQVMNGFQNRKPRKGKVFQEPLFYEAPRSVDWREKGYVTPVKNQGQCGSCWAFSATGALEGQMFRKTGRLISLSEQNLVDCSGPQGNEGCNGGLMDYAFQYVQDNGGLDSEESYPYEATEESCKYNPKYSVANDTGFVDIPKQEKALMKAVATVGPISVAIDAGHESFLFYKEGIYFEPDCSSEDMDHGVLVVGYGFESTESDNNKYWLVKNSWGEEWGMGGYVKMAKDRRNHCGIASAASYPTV

For `CC(C)C[C@@H](C(=O)NCC#N)c1cccc(-c2ccc(-c3nnn[nH]3)cc2)c1` [(2R)-N-(cyanomethyl)-4-methyl-2-{3-[4-(1H-1,2,3,4-tetrazol-5-yl)phenyl]phenyl}pentanamide], the IC50 (in general, the concentration that gives 50% inhibition) is 2580 nM in experiment [1], more than 10000 nM in experiment [2] and more than 10000 nM in experiment [3].
Regarding `CC(C)CC(C(=O)NCC#N)c1cccc(-c2ccccn2)c1` (centres undefined) [N-(cyanomethyl)-4-methyl-2-[3-(pyridin-2-yl)phenyl]pentanamide], the values for the IC50 in experiment [1], in experiment [2] and in experiment [3] were 803 nM, 8040 nM and 5950 nM, respectively.
For the compound `CC(C)CC(C(=O)NCC#N)c1cccc(-c2cccnc2)c1` (centres undefined) [N-(cyanomethyl)-4-methyl-2-[3-(pyridin-3-yl)phenyl]pentanamide], the results for the IC50 in experiment [1], in experiment [2] and in experiment [3] were 488 nM, more than 10000 nM and 5580 nM, respectively.
The like results for `CC(C)CC(C(=O)NCC#N)c1cccc(-c2ccncc2)c1` (centres undefined) [N-(cyanomethyl)-4-methyl-2-[3-(pyridin-4-yl)phenyl]pentanamide] were, in that order, 150 nM, 1750 nM and 5780 nM.
The like results for `CC(C)CC(C(=O)NCC#N)c1cccc(-c2ccccc2N2CCOCC2)c1` (centres undefined) [N-(cyanomethyl)-4-methyl-2-{3-[2-(morpholin-4-yl)phenyl]phenyl}pentanamide] were, in that order, 614 nM, 3370 nM and 919 nM.
Taken in the same sequence, the figures for `CC(C)CC(C(=O)NCC#N)c1cccc(-c2ccccc2N2CCNCC2)c1` (centres undefined) [N-(cyanomethyl)-4-methyl-2-{3-[2-(piperazin-1-yl)phenyl]phenyl}pentanamide] were 58 nM, 521 nM and 338 nM.
With `CC(C)CC(C(=O)NCC#N)c1cccc(-c2cccc(N3CCOCC3)c2)c1` (centres undefined) [N-(cyanomethyl)-4-methyl-2-{3-[3-(morpholin-4-yl)phenyl]phenyl}pentanamide], the IC50 is 630 nM in experiment [1], more than 10000 nM in experiment [2] and more than 10000 nM in experiment [3].
With `CC(C)CC(C(=O)NCC#N)c1cccc(-c2cccc(N3CCNCC3)c2)c1` (centres undefined) [N-(cyanomethyl)-4-methyl-2-{3-[3-(piperazin-1-yl)phenyl]phenyl}pentanamide], the IC50 in experiment [1] is 216 nM; in experiment [2] it was more than 10000 nM; in experiment [3], more than 10000 nM.
